Several values for one entry are separate records, joined by “and”; a condition that tells them apart may be missing. Equal entries are not always repeated. Where two headings read alike, the source gives them in different places.
What was measured:
[1] = test system: N-acetyl-β-hexosaminidase; assay: N-acetyl-β-hexosaminidase inhibition assay (in situ screen, IC50, Ki); assay type: biochemical, jack bean; conditions: for N-acetyl-β-hexosaminidse Inhibition (%): reaction product at 30 μM, in situ screening; for IC50: pure compound, read-out: N-acetyl-β-hexosaminidse IC50
Experimental: (§1) A mixture of iminocyclitol 4, a carboxylic acid (1 equiv, Scheme 2), diisopropyl ethylamine (DIEA, 2.2 equiv), and (1H-benzotriazole-1-yl)-1,1,3,3-tetramethyl-uronium hexafluorophosphate (HBTU, 1.1 equiv) in DMSO was shaken in 96-well microtiter plates for 5 h. Crude reaction products were randomly selected (30%) and analyzed by ESI-MS to ensure the presence of the desired products. The reaction mixture was diluted by appropriate buffer solutions and transferred to another 96-well microtiter plate for screening directly without any purification. […] Assuming the amide formation is complete, the percentage of inhibition relative to the control was calculated on the basis of absorbance at 405 nm for p-nitrophenol released from their corresponding substrates.
(§2) Enzyme assay. General procedure for the assay with various glycosidases. The initial velocities of the hydrolysis were measured spectrophotometrically at various concentrations of p-nitrophenyl-glycopyranoside (4 mM, 2 mM, 1 mM, 0.5 mM, 0.25 mM, 0.125 mM, 0.0625 mM) at 405 nm using Bio Assay Reader (Perkin Elmer HTS 7000 Plus) at 30° C. The obtained data were fitted into the Michaelis-Menten equation by using the Kaleida Graph program to determine the apparent Km values. […] The assays performed in wells of the microtiter plate contained either sodium phosphate buffer (50 mM, pH 7, for α- and β-glucosidase, α- and β-galactosidase, α- and β-mannosidase, α-fucosidase), or Mcllvaine's buffer (25 mM, pH 6, N-acetyl-β-hexosaminidase, jack bean).
(§3) The secondary plot was generated by plotting the apparent Km values as a function of inhibitor concentrations. Ki was calculated from the negative value of the x-intercept of this plot.

α-glucosidase = biological target: T1, α-glucosidase (Saccharomyces cerevisiae, UniProt P53341); assay: α-glucosidase inhibition assay (in situ screen, IC50, Ki); assay type: biochemical, baker's yeast; conditions: for α-glucosidase Inhibition (%): reaction product at 20 μM, in situ screening; for IC50: pure compound
T1 construct: purchased Sigma Co. (St. Louis, Mo.); host or cells: baker's yeast
T1 sequence (P53341 whole entry): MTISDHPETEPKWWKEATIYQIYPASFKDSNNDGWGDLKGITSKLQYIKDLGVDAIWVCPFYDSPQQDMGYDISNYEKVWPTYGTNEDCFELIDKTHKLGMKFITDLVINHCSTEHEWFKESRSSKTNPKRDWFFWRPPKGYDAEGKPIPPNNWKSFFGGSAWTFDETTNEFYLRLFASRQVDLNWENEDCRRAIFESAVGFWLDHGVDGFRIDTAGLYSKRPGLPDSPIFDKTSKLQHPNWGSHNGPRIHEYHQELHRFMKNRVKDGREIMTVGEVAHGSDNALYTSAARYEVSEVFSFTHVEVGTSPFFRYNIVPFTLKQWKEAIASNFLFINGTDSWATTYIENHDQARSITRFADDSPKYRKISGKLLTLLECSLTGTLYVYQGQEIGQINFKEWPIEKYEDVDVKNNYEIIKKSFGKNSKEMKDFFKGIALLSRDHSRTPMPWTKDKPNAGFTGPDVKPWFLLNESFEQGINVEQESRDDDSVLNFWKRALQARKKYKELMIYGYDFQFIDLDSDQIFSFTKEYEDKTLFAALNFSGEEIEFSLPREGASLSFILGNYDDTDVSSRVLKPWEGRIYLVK
Experimental: as §1
General procedure for coupling reactions and in situ screening. To a DMSO solution (10 μL) in each well of a 96-well microtiter plate was added each carboxylic acid (10 μL from a 10 mm stock solution in DMSO, 0.1 μmol), HBTU (10 μL from a 11 mm stock solution in DMSO, 1.1 equiv, 0.11 μmol), and DIEA (10 μL from a 22 mM stock solution in DMSO, 2.2 equiv, 0.22 μmol).
as §2, §3

β-glucosidase = β-glucosidase inhibition assay (in situ screen, IC50, Ki); assay type: biochemical, almonds; conditions: for β-glucosidase Inhibition (%): reaction product at 20 μM, in situ screening; for IC50: pure compound; for Ki: value in brackets
Experimental: as §1, §2, §3

[2] = test system: Japanese encephalitis virus (JEV); assay: Anti-JEV cell-based assay (plaque forming assay, BHK-21 cells)
[3] = test system: dengue virus serotype 2 (DEN-2); assay: Anti-DEN-2 cell-based assay (plaque forming assay, BHK-21 cells)
[4] = value in brackets, read-out: α-glucosidase (Ki)

| SMILES | N-acetyl-β-hexosaminidse Inhibition (%) [1] [%] | α-glucosidase Inhibition (%) (α-glucosidase) | β-glucosidase Inhibition (%) (β-glucosidase) | IC50 [1] [µM] | IC50 (α-glucosidase) [µM] | IC50 (β-glucosidase) [µM] | further results |
| --- | --- | --- | --- | --- | --- | --- | --- |
| O=C(CO)NC[C@H]1N[C@H](CO)[C@@H](O)[C@@H]1O [Compound 6] | 67 | 10 | 23 |  |  |  |  |
| CCCCC(CC)C(=O)NC[C@H]1N[C@H](CO)[C@@H](O)[C@@H]1O (some centres unmarked) [Compound 7] | 20 | 61 | 52 | 19 | 4 | 4.8 | inhibition of JEV infection ([2]; at 50 and 100 μM): no inhibition; inhibition of DEN-2 infection ([3]; at 50 and 100 μM): no inhibition |
| NC(Cn1ccc(=O)cc1)C(=O)NCC1NC(CO)C(O)C1O (centres unmarked) [Compound 9] | 53 | 27 | 37 |  |  |  |  |
| O=C(NC[C@H]1N[C@H](CO)[C@@H](O)[C@@H]1O)c1ccccc1 [Compound 10] | 13 | 16 | 12 |  |  |  |  |
| CN(C)c1ccc(C(=O)NC[C@H]2N[C@H](CO)[C@@H](O)[C@@H]2O)cc1 [Compound 11] | 6 | 41 | 55 |  |  |  |  |
| O=C(/C=C/c1cccc(C(F)(F)F)c1)NC[C@H]1N[C@H](CO)[C@@H](O)[C@@H]1O [Compound 12] | 8 | 19 | 49 |  |  |  |  |
| O=C(/C=C/c1cccc(Cl)c1)NC[C@H]1N[C@H](CO)[C@@H](O)[C@@H]1O [Compound 13] | 3 | 19 | 59 |  |  |  |  |
| CSc1ccccc1C(=O)NC[C@H]1N[C@H](CO)[C@@H](O)[C@@H]1O [Compound 14] | 54 | 51 | 7 |  |  |  |  |
| O=C(NC[C@H]1N[C@H](CO)[C@@H](O)[C@@H]1O)c1ccc2ccccc2c1 [Compound 15] | 31 | 45 | 28 | 44 | 100 | 58 | Ki (β-glucosidase): 30000 nM |
| O=C(Cc1ccc2ccccc2c1)NC[C@H]1N[C@H](CO)[C@@H](O)[C@@H]1O [Compound 16] | 10 | 67 | 44 | 15 | 19 | 49 |  |
| O=C(Cc1cccc2ccccc12)NC[C@H]1N[C@H](CO)[C@@H](O)[C@@H]1O [Compound 17] | 45 | 94 | 45 |  | 0.28 | 92 | Ki (α-glucosidase; [4]): 77 nM; inhibition of JEV infection ([2]; at 50 and 100 μM): no inhibition; inhibition of DEN-2 infection ([3]; at 50 and 100 μM): no inhibition |
| COC(=O)c1ccc2[nH]c(C(=O)NC[C@H]3N[C@H](CO)[C@@H](O)[C@@H]3O)cc2c1 [Compound 18] | 23 | 36 | 53 | 42 | 120 | 10 | Ki (β-glucosidase): 6200 nM |
| O=C(NC[C@H]1N[C@H](CO)[C@@H](O)[C@@H]1O)c1ccc2[nH]ccc2c1 [Compound 19] | 14 | 82 | 15 |  |  |  |  |
| O=C(Cc1c[nH]c2ccccc12)NC[C@H]1N[C@H](CO)[C@@H](O)[C@@H]1O [Compound 20] | 29 | 85 | 23 |  | 1.2 | 130 | Ki (α-glucosidase; [4]): 430 nM; inhibition of JEV infection ([2]; at 50 and 100 μM): no inhibition; inhibition of DEN-2 infection ([3]; at 50 and 100 μM): no inhibition |
| O=C(CCc1c[nH]c2ccccc12)NC[C@H]1N[C@H](CO)[C@@H](O)[C@@H]1O [Compound 21] | 27 | 83 | 20 | 3.2 | 11 | 75 |  |
| O=C(/C=C/c1c[nH]c2ccccc12)NC[C@H]1N[C@H](CO)[C@@H](O)[C@@H]1O [Compound 22] | 16 | 42 | 34 | 63 | 0.81 | 260 | inhibition of JEV infection ([2]; at 50 and 100 μM): no inhibition; inhibition of DEN-2 infection ([3]; at 50 and 100 μM): no inhibition |
| O=C(NC[C@H]1N[C@H](CO)[C@@H](O)[C@@H]1O)c1cn(Cc2ccccc2)c2ccccc12 [Compound 23] | 14 | 63 | 28 | 4.7 | 17 | 92 |  |
| O=C(NC[C@H]1N[C@H](CO)[C@@H](O)[C@@H]1O)C1Cc2ccccc21 (some centres unmarked) [Compound 24] | 9 | 93 | 45 | 11 | 0.15 | 92 | selectivity for α- over β-glucosidase (α-glucosidase): 600 fold; Ki (α-glucosidase; text b9, read-out: Ki, α-glucosidase): 53 nM; Ki (α-glucosidase; text b34, read-out: Ki against yeast α-glucosidase): 53 nM; Ki (α-glucosidase; [4]): 53 nM; increase in activity compared to parent core 4 (α-glucosidase; α-glucosidase): 100 fold; inhibition of JEV infection ([2]; at 50 and 100 μM): no inhibition; inhibition of DEN-2 infection ([3]; at 50 and 100 μM): no inhibition |
| O=C(NC[C@H]1N[C@H](CO)[C@@H](O)[C@@H]1O)c1ccc2c(c1)C(=O)c1ccccc1-2 [Compound 25] | 17 | 56 | 63 |  |  |  |  |
| O=C(/C=C/c1cccc(Br)c1)NC[C@H]1N[C@H](CO)[C@@H](O)[C@@H]1O [Compound 26] | 17 | 31 | 52 |  |  |  |  |
| Cc1ccc(/C=C/C(=O)NC[C@H]2N[C@H](CO)[C@@H](O)[C@@H]2O)cc1 [Compound 27] | 6 | 26 | 55 |  |  |  |  |
| COc1ccc(/C=C/C(=O)NC[C@H]2N[C@H](CO)[C@@H](O)[C@@H]2O)cc1OC(C)=O [Compound 28] | 52 | 27 |  |  | 250 | 2.4 | Ki (β-glucosidase): 1240 nM and 1200 nM |
| CN(C)c1ccc(/C=C/C(=O)NC[C@H]2N[C@H](CO)[C@@H](O)[C@@H]2O)cc1 [Compound 29] | 17 | 22 | 55 | 7.02 | 280 | 3.2 | Ki (β-glucosidase): 1400 nM |
| CC(=O)OC[C@H]1N[C@H](CNC(=O)C2Cc3ccccc32)[C@@H](OC(C)=O)[C@@H]1OC(C)=O (some centres unmarked) [Compound 30] |  |  |  |  |  |  | inhibition of JEV infection ([2]; at 50 μM): no inhibition; inhibition of DEN-2 infection ([3]; at 50 μM): no inhibition |
| CCCCCCCCCN1C(CO)C(O)C(O)C1CNC(=O)C1Cc2ccccc21 (centres unmarked) [Compound 36] |  |  |  |  |  |  | IC50 ([2]; read-out: JEV IC50, M.O.I. = 0.1, virus production, BHK-21 cells): 11.3 ± 1.9 µM; IC90 ([2]; read-out: JEV IC90, M.O.I. = 0.1, virus production, BHK-21 cells): 17.5 ± 0.8 µM; IC50 ([3]; read-out: DEN IC50, M.O.I. = 0.1, virus production, BHK-21 cells): 11.8 ± 0.2 µM; IC90 ([3]; read-out: DEN IC90, M.O.I. = 0.1, virus production, BHK-21 cells): 18 ± 0.2 µM |
